The record followed here is paper PMC11284788, “NN1213 – A Potent, Long-Acting, and Selective Analog of Human Amylin” (Journal of Medicinal Chemistry, 2024).

Read-outs that look alike come from different tables or passages of the source. Numbered stars: 1 amine (or outer) side, 2 acyl side, 3 side chain; on linkers, the order of the positions; unused ones are H or OH. Bridge positions count the residues as written; N and C are the ends. Peptide text beside a SMILES is read from it. * marks the point of attachment. C20 diacid = O=C(O)CCCCCCCCCCCCCCCCCCC(=O)*; γGlu = O=C(O)[C@H](CCC(=O)[*:2])N[*:1]

The nature of series [1]: Solubility versus pH profile.
Series [2] can be described thus: ThT assay: fibril formation propensity and peptide recovery. The series is classed as physicochemical. The following applies: for ThT, pH 4.0 lag-time: 250 μM peptide, 10 mM glycylglycine pH 4.0, 1 μM ThT, 37 °C, 960 rpm, 45 h, lowest of four replicas, average of experiments; for recovery: pH 4.0, residual dissolved peptide after 45 h of shaking, centrifugation and 0.22 μm filtration, HPLC, relative to amount before stress. The method, boiled down: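 Peptides at 250 μM in 10 mM glycylglycine (pH 4.0) or HEPES (pH 7.5) with 1 μM ThT, shaken at 37 °C, 960 rpm, for 45 h; ThT fluorescence (ex 444/em 485 nm) read every 20 min. Lag time is the lowest of four replicates (>45 h if none); recovery is soluble peptide by HPLC after centrifugation/filtration, relative to pre-stress.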

The nature of series [3]: HMWP content by size-exclusion chromatography. The class given is physicochemical. Conditions: analogs 10–21 (pH 4.0 series); covalent dimers and polymers prior to fibril formation testing, SEC, % of total absorbance area at 215 nm. The gist of the method:
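Amylin analogs analysed before fibril-formation testing by isocratic SEC in 0.5 M NaCl, 10 mM sodium dihydrogen phosphate, 5 mM ortho-phosphoric acid, 50% (v/v) 2-propanol. HMWP (covalent dimers/polymers) given as peak absorbance area percentage of total, assuming equal extinction coefficients for HMWP and main peak.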

Series [4] has as its target T1, hAMY3R (Homo sapiens, UniProt O60896+P30988).
T1 sequence (P30988 25-474): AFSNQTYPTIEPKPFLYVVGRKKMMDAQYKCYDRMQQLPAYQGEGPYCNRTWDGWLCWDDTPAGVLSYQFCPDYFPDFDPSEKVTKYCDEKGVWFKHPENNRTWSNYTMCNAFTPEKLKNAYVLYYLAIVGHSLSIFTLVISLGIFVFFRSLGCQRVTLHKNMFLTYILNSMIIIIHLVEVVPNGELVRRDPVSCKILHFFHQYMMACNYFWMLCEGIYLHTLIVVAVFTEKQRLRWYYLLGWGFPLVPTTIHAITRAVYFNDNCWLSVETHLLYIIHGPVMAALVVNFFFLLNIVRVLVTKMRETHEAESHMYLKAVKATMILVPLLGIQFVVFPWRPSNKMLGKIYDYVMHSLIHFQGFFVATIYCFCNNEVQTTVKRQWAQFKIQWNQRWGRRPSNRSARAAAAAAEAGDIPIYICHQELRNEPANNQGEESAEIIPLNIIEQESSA
T1 sequence (O60896 24-148 partner): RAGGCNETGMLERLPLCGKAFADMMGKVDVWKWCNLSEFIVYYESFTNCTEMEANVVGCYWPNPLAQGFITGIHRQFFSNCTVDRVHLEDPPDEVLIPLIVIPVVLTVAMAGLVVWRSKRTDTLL
The series can be described thus: cAMP-responsive element luciferase reporter assay, human AMY3R. The class given is cell-based. Also on record: expressed in transfected cells. Conditions: for ratio hCTR/hAMY3R: ratio of luciferase EC50 values.

Where [5] appears, read: bis-tris-propane buffer, pH 6, aqueous buffer.
Setting [6] is: bis-tris-propane buffer, pH 6.5, aqueous buffer.
Setting [7] is: bis-tris-propane buffer, pH 7, aqueous buffer.
The mark [8] stands for this setting: bis-tris-propane buffer, pH 7.5, aqueous buffer.
[9] abbreviates: bis-tris-propane buffer, pH 8, aqueous buffer.
Setting [10] is: lactate buffer, pH 4, aqueous buffer.
Setting [11] is: lactate buffer, pH 5, aqueous buffer.
Where [12] appears, read: luciferase (human receptor assay), Tables S12 and S14, read-out: hAMY3R pEC50 (converted).
Setting [13] is: luciferase (human receptor assay), BHK cells stably expressing hCTR+RAMP3 and CRE-luciferase, 3 h, 37 °C, 10% FBS, read-out: hAMY3R EC50.

For the compound `CC[C@H](C)[C@H](NC(=O)[C@H](C)NC(=O)CNC(=O)[C@H](Cc1ccccc1)NC(=O)[C@H](CC(N)=O)NC(=O)[C@@H]1CCCN1C(=O)[C@H](CO)NC(=O)[C@H](CO)NC(=O)[C@H](Cc1c[nH]cn1)NC(=O)[C@H](CCCNC(=N)N)NC(=O)[C@H](CC(C)C)NC(=O)[C@H](Cc1ccccc1)NC(=O)[C@H](CC(N)=O)NC(=O)[C@H](C)NC(=O)[C@H](CC(C)C)NC(=O)[C@H](CCCNC(=N)N)NC(=O)[C@H](CCC(N)=O)NC(=O)[C@@H](NC(=O)[C@H](C)NC(=O)[C@@H]1CSSC[C@H](NC(=O)[C@@H](N)CCCCNC(=O)CC[C@H](NC(=O)CCCCCCCCCCCCCCCCCCC(=O)O)C(=O)O)C(=O)N[C@@H](CC(N)=O)C(=O)N[C@@H]([C@@H](C)O)C(=O)N[C@@H](C)C(=O)N[C@@H]([C@@H](C)O)C(=O)N1)[C@@H](C)O)C(=O)N1CCC[C@H]1C(=O)N[C@@H](CO)C(=O)N[C@@H](CO)C(=O)N[C@H](C(=O)N[C@@H](CC(N)=O)C(=O)N[C@H](C(=O)NCC(=O)N[C@@H](CO)C(=O)N[C@@H](CCCCN)C(=O)N[C@H](C(=O)N[C@@H](Cc1ccc(O)cc1)C(N)=O)[C@@H](C)O)C(C)C)[C@@H](C)O` [Peptide 14], the solubility (kinetic) in series [1] (setting [5]), in series [1] (setting [6]), in series [1] (setting [7]), in series [1] (setting [8]), in series [1] (setting [9]) and in series [1] (setting [10]) was not below 200 µM each time. The compound also returned a solubility (kinetic) in series [1] (setting [11]) not below 200 µM. In series [2], the “ThT, pH 4.0 lag-time” value is more than 45 h. For the same compound, the recovery in series [2] is reported as 100%. Also, the HMWP in series [3] worked out at 3.0%. Moreover, the “hAMY3R pEC50” value in series [4] (luciferase (human receptor assay), Tables S12 and S14) was found to be 9.44. For the same compound, the “ratio hCTR/hAMY3R” value in series [4] is reported as 15.
For `CC[C@H](C)[C@H](NC(=O)[C@H](C)NC(=O)CNC(=O)[C@H](Cc1ccccc1)NC(=O)[C@H](CC(N)=O)NC(=O)[C@@H]1CCCN1C(=O)[C@H](CO)NC(=O)[C@H](CO)NC(=O)[C@H](Cc1c[nH]cn1)NC(=O)[C@H](CCCNC(=N)N)NC(=O)[C@H](CC(C)C)NC(=O)[C@H](Cc1ccccc1)NC(=O)[C@H](CC(N)=O)NC(=O)[C@H](C)NC(=O)[C@H](CC(C)C)NC(=O)[C@H](CCCNC(=N)N)NC(=O)[C@H](CCC(N)=O)NC(=O)[C@@H](NC(=O)[C@H](C)NC(=O)[C@@H]1CSSC[C@H](NC(=O)[C@H](CCCCN)NC(=O)CC[C@H](NC(=O)CCCCCCCCCCCCCCCCCCC(=O)O)C(=O)O)C(=O)N[C@@H](CC(N)=O)C(=O)N[C@@H]([C@@H](C)O)C(=O)N[C@@H](C)C(=O)N[C@@H]([C@@H](C)O)C(=O)N1)[C@@H](C)O)C(=O)N1CCC[C@H]1C(=O)N[C@@H](CO)C(=O)N[C@@H](CO)C(=O)N[C@H](C(=O)N[C@@H](CC(N)=O)C(=O)N[C@H](C(=O)NCC(=O)N[C@@H](CO)C(=O)N[C@@H](CCCCN)C(=O)N[C@H](C(=O)N[C@@H](Cc1ccc(O)cc1)C(N)=O)[C@@H](C)O)C(C)C)[C@@H](C)O` [Peptide 13], the solubility (kinetic) in series [1] (setting [5]), in series [1] (setting [6]), in series [1] (setting [7]), in series [1] (setting [8]), in series [1] (setting [9]) and in series [1] (setting [10]) was not below 200 µM each time. Moreover, the kinetic solubility in series [1] (setting [11]) is not below 200 µM. Moreover, in series [2], the “ThT, pH 4.0 lag-time” value stood at 35 h. Besides, in series [2], the recovery is given as 99%. Moreover, the HMWP in series [3] was 2.1%. The EC50 is 0.309 nM in series [4] (setting [12]) and 0.31 nM in series [4] (setting [13]). In series [4], the “ratio hCTR/hAMY3R” value came to 8.4.
As for `CC[C@H](C)[C@H](NC(=O)[C@H](C)NC(=O)CNC(=O)[C@H](Cc1ccccc1)NC(=O)[C@H](CC(N)=O)NC(=O)[C@@H]1CCCN1C(=O)[C@H](CO)NC(=O)[C@H](CO)NC(=O)[C@H](Cc1c[nH]cn1)NC(=O)[C@H](CCCNC(=N)N)NC(=O)[C@H](CC(C)C)NC(=O)[C@H](Cc1ccccc1)NC(=O)[C@H](CC(N)=O)NC(=O)[C@H](C)NC(=O)[C@H](CC(C)C)NC(=O)[C@H](CCCNC(=N)N)NC(=O)[C@H](CCC(N)=O)NC(=O)[C@@H](NC(=O)[C@H](C)NC(=O)[C@@H]1CSSC[C@H](NC(=O)[C@H](CCCCN)NC(=O)CC[C@H](NC(=O)CCCCCCCCCCCCCCCCCCC(=O)O)C(=O)O)C(=O)N[C@@H](CC(N)=O)C(=O)N[C@@H]([C@@H](C)O)C(=O)N[C@@H](C)C(=O)N[C@@H]([C@@H](C)O)C(=O)N1)[C@@H](C)O)C(=O)N1CCC[C@H]1C(=O)N[C@@H](CO)C(=O)N[C@@H](CO)C(=O)N[C@H](C(=O)N[C@@H](CC(N)=O)C(=O)N[C@H](C(=O)NCC(=O)N[C@@H](Cc1c[nH]cn1)C(=O)N[C@@H](CC(N)=O)C(=O)N[C@H](C(=O)N[C@@H](Cc1ccc(O)cc1)C(N)=O)[C@@H](C)O)C(C)C)[C@@H](C)O` [Peptide 17], the kinetic solubility in series [1] (setting [5]), in series [1] (setting [6]), in series [1] (setting [7]), in series [1] (setting [8]), in series [1] (setting [9]) and in series [1] (setting [10]) was not below 200 µM each time. Further, in series [1] (setting [11]), the kinetic solubility is not below 200 µM. Besides, the “ThT, pH 4.0 lag-time” value in series [2] was determined as 26 h. Besides, in series [2], the recovery amounted to 92%. This compound showed an HMWP in series [3] of 1.7%. The EC50 in series [4] (setting [12]) and in series [4] (setting [13]) was 0.151 nM throughout. Also, the “ratio hCTR/hAMY3R” value in series [4] stood at 17.
As for `CC[C@H](C)[C@H](NC(=O)[C@H](C)NC(=O)CNC(=O)[C@H](Cc1ccccc1)NC(=O)[C@H](CC(N)=O)NC(=O)[C@@H]1CCCN1C(=O)[C@H](CO)NC(=O)[C@H](CO)NC(=O)[C@H](Cc1c[nH]cn1)NC(=O)[C@H](CCCNC(=N)N)NC(=O)[C@H](CC(C)C)NC(=O)[C@H](Cc1ccccc1)NC(=O)[C@H](CCC(=O)O)NC(=O)[C@H](C)NC(=O)[C@H](CC(C)C)NC(=O)[C@H](CCCNC(=N)N)NC(=O)[C@H](CCC(N)=O)NC(=O)[C@@H](NC(=O)[C@H](C)NC(=O)[C@@H]1CSSC[C@H](NC(=O)[C@H](CCCCN)NC(=O)CC[C@H](NC(=O)CCCCCCCCCCCCCCCCCCC(=O)O)C(=O)O)C(=O)N[C@@H](CC(N)=O)C(=O)N[C@@H]([C@@H](C)O)C(=O)N[C@@H](C)C(=O)N[C@@H]([C@@H](C)O)C(=O)N1)[C@@H](C)O)C(=O)N1CCC[C@H]1C(=O)N[C@@H](CO)C(=O)N[C@@H](CO)C(=O)N[C@H](C(=O)N[C@@H](CC(N)=O)C(=O)N[C@H](C(=O)NCC(=O)N1CCC[C@H]1C(=O)N[C@@H](CC(N)=O)C(=O)N[C@H](C(=O)N[C@@H](Cc1ccc(O)cc1)C(N)=O)[C@@H](C)O)C(C)C)[C@@H](C)O` [Peptide 12] ({C20 diacid-γGlu}-KCNTATCATQRLAEFLRHSSPNFGAIPSSTNVGPNTY-NH2; disulfide 2-7), the kinetic solubility in series [1] (setting [5]), in series [1] (setting [6]), in series [1] (setting [7]), in series [1] (setting [8]), in series [1] (setting [9]) and in series [1] (setting [10]) was not below 200 µM in each case. In series [1] (setting [11]), this compound yielded a solubility (kinetic) not below 200 µM. In addition, the “ThT, pH 4.0 lag-time” value in series [2] is reported as more than 45 h. Further, in series [2], the recovery came out at 78%. The HMWP in series [3] was 3.9%. Besides, the EC50 in series [4] (setting [12]) was 0.0468 nM; in series [4] (setting [13]), 0.047 nM. The “ratio hCTR/hAMY3R” value in series [4] was determined as 6.7.
